Results on two compounds are retold here after patent US20080318910A1, “Controlled-Release Oral Dosage Form” (MISTRAL PHARMA, INC., priority 2005, published 2008).

A short description of the data set: physchem.

Converted amounts (≈) assume the structure as drawn.

`CCC(COC(=O)c1cc(OC)c(OC)c(OC)c1)(c1ccccc1)N(C)C` (stereo not shown) [Trimebutine]: the solubility reads like this: (pH 2, simulated gastric fluid) about 11000 µg/mL (≈ 28.4 mM); (pH 5.5, aqueous buffer) 1000 µg/mL (≈ 2.58 mM).
On to `C/C=C/C=C/C(=O)O` [Sorbic acid], for which the solubility is, setting by setting: (aqueous buffer, solubility, pH higher than 4.8) about 333000 µg/mL (≈ 2970 mM); (aqueous buffer, solubility, pH lower than 4.8) about 2500 µg/mL (≈ 22.3 mM).
